Data reported in patent US11306095B2 (EAST CHINA UNIVERSITY OF SCIENCE AND TECHNOLOGY, priority 2015, dated 2022).
In brackets after ≈: the same amount, converted by molar mass.

Experiments:
Wild type EGFR = target: T1, Wild type EGFR (Homo sapiens, UniProt P00533); assay: Kinase activity test (FRET), wild type EGFR; type: biochemical; conditions: wild type EGFR; read-out: Inhibitory activity of EGFR on kinase (IC50, nM) WT
T1 construct: purchased Invitrogen PV3872
Experimental: (§1) EGFR-TK catalyses transfer of one phosphate group of adenosine triphosphate (ATP) to polypeptide substrate, poly(Glu, Tyr)4:1, which is labeled with two fluorescent groups coumarin and fluorescein.
(§2) 2.5 μL of Test Compounds, 5 μL Kinase/Peptide Substrate Mixture, 2.5 μL ATP Solution were added into a 384-well plate, and the 10 μL of reaction system was shaken for 30 s and incubated at room temperature for 1 h. 5 μL of Development Solution was added and the 15 μL of reaction system was shaken for 30 s, and incubated at room temperature for 1 h. […] The inhibitory rates of the compounds at 7 concentration gradients were determined and the IC50 value for each compound was calculated by Origin 8.0 fitting curve.
(§3) 10 concentration gradients from 5.1×10^−11 mol/L to 1.0×10^−6 mol/L were set for all compounds to be tested.
(§4) Compounds were diluted in DMSO for three times from 5.1×10^−9 M to 1×10^−4 M. 4 μL of the compound was dissolved in 96 μL of water to obtain a 4× compound solution. […] The 10 μL kinase reaction consisted of 2.5 μL compound solution, 5 μL kinase/peptide mix, 2.5 μL ATP solution. […] 5 μL of phosphorylated peptide solution, instead of the kinase/peptide mixture, was used as a 100% phosphorylation control. […] The plates were thoroughly mixed and incubated at room temperature for 1.5 hours. 5 μL of Development Solution was added into each well and then incubated for another 1 hour at room temperature, unphosphorylated peptides were cleaved during this period. Finally, 5 μL Stop Reagent was added to quench the reaction. The plates were measured with EnVision Multilabel Reader (Perkin Elmer). The experimental data were calculated using GraphPad Prism version 4.0. Each experiment was repeated more than 3 times.

EGFR-L858R/T790M = target: T2, EGFR-L858R/T790M (Homo sapiens, UniProt P00533, L858R/T790M); assay: Kinase activity test (FRET), EGFR T790M/L858R; type: biochemical; conditions: EGFR T790M/L858R; read-out: Inhibitory activity of EGFR on kinase (IC50, nM) T790M/L858R
T2 construct: purchased Invitrogen PV4879
Experimental: as §1, §2, §3, §4

[1] = Determination of solubility in water (PBS 20 mM, pH 6.8); type: physicochemical; conditions: PBS buffer, aqueous buffer, thermodynamic from solid; pH 6.8, 20 mM PBS; read-out: Solubility (pH 6.8, g/mL)
Experimental: The suspension was filtered through a 0.22 μm PVDF filter, and then diluted to an appropriate concentration with methanol (v=50%) and PBS (v=50%), and the absorbance was measured by a UV spectrophotometer. About 3 mg of compound was accurately weighed, and methanol was added for preparing a stock solution of 1 mg/mL. The above stock solution was taken and prepared into a solution at concentrations of 0.05, 0.04, 0.03, 0.02 and 0.01 mg/mL, respectively, PBS solution (v=50%) was added and the absorbance value was measured. Concentration c (mg/mL) as horizontal ordinate vs absorbance A as longitudinal coordinate was plotted, and a line was fitted for obtaining a standard curve (correlation coefficient greater than 0.998). The solubility of a compound in water was calculated from the standard curve.

[2] = tested on: A431 cells (EGFR wild type); assay: Inhibitory activity on cell proliferation, A431; type: cell-based; conditions: Homo sapiens, A-431; A431, 72 hours; read-out: Inhibitory activity on proliferation of cells (IC50, μM) A431
Experimental: (§5) Cell proliferation activity was assessed by MTS assay. Cells were exposed to processing conditions for 72 hours and the number of cells used in each experiment for each cell line was adjusted based on absorbance values (absorbance values at 490 nm, 1.3-2.2). Six concentration gradients (0.1 nM-10 μM) were set for the compounds to be tested, wherein at least 6 sets of parallel controls for each concentration were used.
(§6) H1975, A431 cells were cultured in corresponding media, and cells were passaged at least twice after resuscitation and then used for experiments. Cells at Log phase were trypsinized and resuspended in culture medium. H1975 (1000 cells per well), A431 (2000 cells per well) were seeded in 96-well plates in a volume of 100 μL; and 6 sets of parallel controls and 7 columns were set. The plate was placed in a 37° C. 5% CO2 incubator overnight. Compounds were dissolved in DMSO to a concentration of […], and then the concentration was gradually diluted to 10 μM, 1 μM, 0.1 μM, 0.01 μM, 0.001 μM, 0.0001 μM per liter, respectively. 2 μL of the compound solution was added to 998 μL of medium, and the mixture was thoroughly mixed. 100 μL of the mixture was added to a 96-well plate. […] After culturing for 68 hours, 20 μL of MTT (5 mg/mL) was added. After 4 hours, the supernatant was discarded and 150 μL of DMSO was added. After shaking for 10 minutes, the plate was read with Synergy HT (Bio TeK) (OD490). Data were calculated using GraphPad Prism version 4.0 and IC50 values were obtained using a non-linear regression model of dose response curve.

[3] = tested on: H1975 cells (EGFR L858R/T790M); assay: Inhibitory activity on cell proliferation, H1975; type: cell-based; conditions: Homo sapiens, NCI-H1975; H1975, 72 hours; read-out: Inhibitory activity on proliferation of cells (IC50, μM) H1975
Experimental: as §5, §6

T2 sequence (P00533 25-1210 T790M/L858R): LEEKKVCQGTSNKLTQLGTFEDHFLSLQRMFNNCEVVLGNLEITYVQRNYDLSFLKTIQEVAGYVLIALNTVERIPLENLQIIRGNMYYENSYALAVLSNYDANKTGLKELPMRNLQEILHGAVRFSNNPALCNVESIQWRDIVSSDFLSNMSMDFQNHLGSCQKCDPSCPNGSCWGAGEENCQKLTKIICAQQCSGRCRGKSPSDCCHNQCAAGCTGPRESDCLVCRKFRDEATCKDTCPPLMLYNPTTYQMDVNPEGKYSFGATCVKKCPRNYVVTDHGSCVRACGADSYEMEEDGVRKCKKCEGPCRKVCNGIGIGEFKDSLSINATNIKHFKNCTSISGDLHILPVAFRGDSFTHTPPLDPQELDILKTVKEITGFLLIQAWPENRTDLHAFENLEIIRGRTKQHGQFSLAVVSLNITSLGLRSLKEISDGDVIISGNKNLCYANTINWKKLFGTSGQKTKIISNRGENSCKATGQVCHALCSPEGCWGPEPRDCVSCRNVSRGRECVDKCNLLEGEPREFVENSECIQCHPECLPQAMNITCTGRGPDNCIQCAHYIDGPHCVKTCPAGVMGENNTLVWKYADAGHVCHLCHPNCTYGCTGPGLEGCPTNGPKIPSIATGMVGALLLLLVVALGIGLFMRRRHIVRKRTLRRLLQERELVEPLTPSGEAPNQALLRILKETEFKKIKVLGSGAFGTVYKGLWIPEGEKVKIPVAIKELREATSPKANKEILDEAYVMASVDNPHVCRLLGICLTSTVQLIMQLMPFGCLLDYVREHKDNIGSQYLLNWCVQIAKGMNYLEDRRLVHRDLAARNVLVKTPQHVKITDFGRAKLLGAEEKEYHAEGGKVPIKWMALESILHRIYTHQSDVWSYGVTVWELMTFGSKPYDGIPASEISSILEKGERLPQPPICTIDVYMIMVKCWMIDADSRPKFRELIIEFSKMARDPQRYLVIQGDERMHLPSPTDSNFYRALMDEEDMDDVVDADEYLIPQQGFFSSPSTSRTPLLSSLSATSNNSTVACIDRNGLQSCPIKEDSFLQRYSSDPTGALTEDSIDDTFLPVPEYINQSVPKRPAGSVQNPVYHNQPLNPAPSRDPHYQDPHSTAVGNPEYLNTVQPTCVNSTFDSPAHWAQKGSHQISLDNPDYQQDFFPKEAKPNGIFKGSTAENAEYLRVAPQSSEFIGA
T1 sequence (P00533 25-1210): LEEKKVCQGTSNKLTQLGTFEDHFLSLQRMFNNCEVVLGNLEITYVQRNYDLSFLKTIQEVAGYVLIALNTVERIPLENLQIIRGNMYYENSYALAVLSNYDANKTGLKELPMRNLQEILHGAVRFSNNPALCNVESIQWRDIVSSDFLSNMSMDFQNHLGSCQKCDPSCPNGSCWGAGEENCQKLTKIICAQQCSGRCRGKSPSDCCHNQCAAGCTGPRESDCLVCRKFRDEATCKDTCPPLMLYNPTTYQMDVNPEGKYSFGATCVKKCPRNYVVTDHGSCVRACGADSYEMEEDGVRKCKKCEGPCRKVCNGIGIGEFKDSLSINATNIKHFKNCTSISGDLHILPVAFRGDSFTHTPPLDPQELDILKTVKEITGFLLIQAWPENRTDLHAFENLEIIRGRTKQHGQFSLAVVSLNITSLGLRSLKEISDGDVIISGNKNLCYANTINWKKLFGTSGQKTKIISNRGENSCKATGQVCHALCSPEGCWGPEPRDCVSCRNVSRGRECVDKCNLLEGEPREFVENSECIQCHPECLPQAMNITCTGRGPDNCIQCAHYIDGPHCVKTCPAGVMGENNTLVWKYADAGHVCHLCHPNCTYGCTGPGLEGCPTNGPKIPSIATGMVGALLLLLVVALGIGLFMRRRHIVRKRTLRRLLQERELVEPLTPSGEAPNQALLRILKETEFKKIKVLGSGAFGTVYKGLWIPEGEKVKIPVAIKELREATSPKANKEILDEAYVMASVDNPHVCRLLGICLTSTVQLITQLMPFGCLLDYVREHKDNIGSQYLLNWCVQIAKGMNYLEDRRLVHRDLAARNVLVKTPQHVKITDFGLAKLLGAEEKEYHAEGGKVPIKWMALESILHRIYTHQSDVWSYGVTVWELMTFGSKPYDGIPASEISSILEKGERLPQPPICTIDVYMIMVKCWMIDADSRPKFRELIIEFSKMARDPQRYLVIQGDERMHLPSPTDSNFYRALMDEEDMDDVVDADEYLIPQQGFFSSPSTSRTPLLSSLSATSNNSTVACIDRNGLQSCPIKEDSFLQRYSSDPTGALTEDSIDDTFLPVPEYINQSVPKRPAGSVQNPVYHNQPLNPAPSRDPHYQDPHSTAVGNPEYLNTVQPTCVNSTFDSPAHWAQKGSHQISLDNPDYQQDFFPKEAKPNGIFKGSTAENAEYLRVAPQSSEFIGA

| Structure (SMILES) | IC50 (Wild type EGFR) | IC50 (EGFR-L858R/T790M) | solubility [1] | IC50 [2] | IC50 [3] | melting point |
| --- | --- | --- | --- | --- | --- | --- |
| C=CC(=O)Nc1cccc(-n2c(=O)c(-c3ccccc3)nc3cnc(Nc4ccc(N5CCN(C)CC5)c(C)c4)nc32)c1 [Compound 47, N-(3-(2-((3-methyl-4-(4-methyl-1-piperazinyl)phenyl)amino)-7-oxy-6-phenyl-8(7H)pteridinyl)phenyl)acrylamide] | 0.5 nM | 0.2 nM | < 10 µg/mL | 1.73 µM | 0.018 µM | 265 to 265.2 °C |
| C=CC(=O)N1CCC[C@@H](n2c(=O)c(-c3ccccc3)nc3cnc(Nc4ccc(N5CCN(C)CC5)cc4OC)nc32)C1 [Compound 45, (R)-8-(1-acryloyl-3-piperidinyl)-2-((2-methoxy-4-(4-methyl-1-piperazinyl)phenyl)amino)-6-phenyl-7(8H)pteridinone] | > 1000 nM | > 1000 nM | < 10 µg/mL | 4.28 µM | 1.78 µM | 134.9 to 135.1 °C |
| C=CC(=O)N1CC[C@H](n2c(=O)c(-c3ccccc3)nc3cnc(Nc4ccc(N5CCN(C)CC5)c(OC)c4)nc32)C1 [Compound 35, (S)-8-(1-acryloyl-30pyrrolidinyl)-2-((3-methoxy-4(4-methyl-1-piperazinyl)phenyl)amino)-6-phenyl-7(8H)pteridinone] | 20.1 nM | 17.5 nM | 63.3 µg/mL (≈ 112 µM) | 0.225 µM | 0.378 µM | 208.3 to 208.8 °C |
| C=CC(=O)Nc1cccc(-n2c(=O)c(-c3ccc(F)cc3)nc3cnc(Nc4ccc(N5CCN(C)CC5)cc4OC)nc32)c1 [Compound 52, N-(3-(6-(4-fluorophenyl)-2-((2-methoxy-4-(4-methyl-1-piperazinyl)phenyl)amino)-7-oxo-8(7H)pteridinyl)phenyl)acrylamide] | 1.3 nM | 0.6 nM | < 10 µg/mL | 1.46 µM | 0.044 µM | 262.3 to 262.7 °C |
| C=CC(=O)N1CCC[C@@H](n2c(=O)c(C3CCCCC3)nc3cnc(Nc4ccc(N5CCN(C)CC5)cc4OC)nc32)C1 [Compound 46, (R)-8-(1-acryloyl-3-piperidinyl)-6-cyclohexyl-2-((2-methoxy-4-(4-methyl-1-piperazinyl)phenyl)amino)-7(8H)pteridinone] | > 10000 nM | 13.3 nM | 43.2 µg/mL (≈ 73.6 µM) | 2.39 µM | 2.16 µM | 94.2 to 94.7 °C |
| C=CC(=O)N1CC[C@H](n2c(=O)cnc3cnc(Nc4ccc(N5CCN(C)CC5)c(C)c4)nc32)C1 [Compound 34, (S)-8-(1-acryloyl-3-pyrrolidinyl)-2-((3-methyl-4-(4-methyl-1-piperazinyl)phenyl)amino)-7(8H)pteridinone] | 86.7 nM | 896 nM | 223 µg/mL (≈ 470 µM) | > 10 µM | 0.831 µM | 215.5 to 215.7 °C |
| C=CC(=O)Nc1cccc(-n2c(=O)c(C(C)C)nc3cnc(Nc4cc(C)c(N5CCN(C)CC5)cc4OC)nc32)c1 [Compound 39, N-(3-(6-isopropyl-2-((2-methoxy-5-methyl-4-(4-methyl-1-piperazinyl)phenyl)amino)-7-oxo-8(7H)pteridinyl)phenyl)acrylamide] | 130 nM | 82.2 nM | < 10 µg/mL | 3.84 µM | 0.572 µM | 227.5 to 228.5 °C |
| COc1cc(N2CCN(C)CC2)ccc1Nc1ncc2nc(-c3ccccc3)c(=O)n(-c3cccc(N)c3)c2n1 [Compound 51, 8-(3-aminophenyl)-2-((2-methoxy-4-(4-methyl-1-piperazinyl)phenyl)amino)-6-phenyl-7(8H)pteridinone] | 16.6 nM | 251 nM | < 10 µg/mL | 2.06 µM | 5.34 µM | 235.5 to 235.7 °C |
| C=CC(=O)Nc1cccc(-n2c(=O)c(-c3cc(F)cc(F)c3)nc3cnc(Nc4ccc(N5CCN(C)CC5)cc4OC)nc32)c1 [Compound 55, N-(3-(6-(3,5-difluorophenyl)-2-((2-methoxy-4-(4-methyl-1-piperazinyl)phenyl)amino)-7-oxo-8(7H)pteridinyl)phenyl)acrylamide] | 6.6 nM | 6.1 nM | < 10 µg/mL | 1.3 µM | 0.262 µM | 291.2 to 291.4 °C |
| C=CC(=O)Nc1cccc(-n2c(=O)cnc3cnc(Nc4ccc(N5CCN(C)CC5)cc4OCOC)nc32)c1 [Compound 9, N-(3-(2-((2-(methoxymethoxy)-4-(4-methyl-1-piperazinyl)phenyl)amino)-7-oxo-8(7H)-pteridinyl)phenyl)acrylamide] | 23.4 nM | 20.8 nM | 163 µg/mL (≈ 300 µM) | 2.81 µM | 1.04 µM | 187.3 to 188.1 °C |
| C=CC(=O)N1CC[C@H](n2c(=O)c(-c3ccccc3)nc3cnc(Nc4ccc(N(C)CCN(C)C)c(OC)c4)nc32)C1 [Compound 41] | 5350 nM | 38.6 nM | > 10 µg/mL | 1.26 µM | 1.19 µM | 260 to 260.2 °C |
| C=CC(=O)N1CC[C@H](n2c(=O)c(-c3ccccc3)nc3cnc(Nc4ccc(N(C)CCN(C)C)c(C)c4)nc32)C1 [Compound 40] | > 10000 nM | 73.1 nM | > 10 µg/mL | 1.38 µM | 1.05 µM | 256.1 to 256.4 °C |
| C=CC(=O)N1CC[C@H](n2c(=O)c(C3CCCCC3)nc3cnc(Nc4ccc(N5CCN(C)CC5)cc4OC)nc32)C1 [Compound 50, (S)-8-(1-acryloyl-3-pyrrolidinyl)-6-cyclohexyl-2-((2-methoxy-4-(4-methyl-1-piperazinyl)phenyl)amino)-7(8H)pteridinone] | 2.7 nM | 86.9 nM | 719 µg/mL (≈ 1260 µM) | 1.11 µM | 1.24 µM | 117.9 to 118.2 °C |
| C=CC(=O)N1CCC[C@H](Cn2c(=O)c(-c3ccccc3)nc3cnc(Nc4ccc(N5CCN(C)CC5)cc4OC)nc32)C1 [Compound 44] | 343 nM | > 1000 nM | < 10 µg/mL | 1.81 µM | 1.56 µM | 208.3 to 209.3 °C |
| C=CC(=O)Nc1cccc(-n2c(=O)c(-c3ccccc3)nc3cnc(Nc4ccc(N5CCN(C)CC5)c(OC)c4)nc32)c1 [Compound 42, N-(3-(2-((3-methoxy-4-(4-methyl-1-piperazinyl)phenyl)amino)-7-oxo-6-phenyl-8(7H)pteridinyl)phenyl)acrylamide] | 528 nM | 47.5 nM | < 10 µg/mL | 0.328 µM | 0.003 µM | 264.7 to 265.5 °C |
